Laboratory results as given in patent US7201928B1, “Extracts of orange peel for prevention and treatment of cancer” (Rutgers, The State University of New Jersey, priority 1999, dated 2007).
Like-named read-outs stand apart in the source and are kept apart here.

Columns and labels:
W138 (normal) cells = assay: cell proliferation assay and morphology, normal cells; type: cell-based, human; conditions: for effect on normal cell growth: crystal violet, 0, 1, 5, 10, 20 or 50 μg/ml; for neutral β-galactosidase activity (staining), senescence marker: W138 cells
Protocol: (§1) In addition to testing for the activity of the complete orange peel extract, two of the identified extract components, tangeretin and nobeletin, were tested for their combined activity in a cell proliferation assay. The growth of W138 (normal) and W138VA (transformed) cells was tested in the presence of a mixture of tangeretin and nobeletin. The dye crystal violet was used for measuring growth of the cells. Cells were treated with either tangeretin alone (0, 1, 5, 10, 20 or 50 μg/ml), nobeletin alone (0, 1, 5, 10, 20 or 50 μg/ml) or a mixture of the two compounds at a total concentration of the two flavenoids of 0, 1, 5, 10, 20 or 50 μg/ml. […] The range of doses of the extract tested was 0, 1, 5, 10, 20 and 50 μg/ml.
(§2) W138 human diploid fibroblasts and cancerous SV40-transformed W138 cells (W138VA) were used in a cell proliferation assay. Growth rate and viability of these cells was determined following addition of resveratrol or one of its analogs. Doses tested ranged from 50 ng to 300 μg per ml or 1 μM to 100 μM concentrations in culture media. […] MR-1 was not active as an inhibitor of cell growth even at doses as high as 100 μM.
Treatment of W138 and W138VA cells with resveratrol and its analogs also led to morphological changes in the cells. Treatment of W138 cells with resveratrol and its analogs R-1 and R-3 led to elongation of normal W138 cells. Methoxy analogs such as MR-0 and MR-3 caused the flattening of W138 cells. This flattening was accompanied by an increase in neutral β-galactosidase activity as indicated by an increase in staining.

[1] = system: W138VA (transformed) cells; assay: cell proliferation assay, transformed cells; type: cell-based, human; conditions: for inhibition of cell growth in transformed cells: crystal violet, 0, 1, 5, 10, 20 or 50 μg/ml
Protocol: as §1, §2

W138 and W138VA cells = assay: cell proliferation assay, cell line not specified for the result; type: cell-based, human
Protocol: as §1, §2

184-B5/HER cells = assay: preclinical cell culture model for human ductal breast carcinoma in situ; type: cell-based; conditions: for cell cycle analysis: relative to solvent-treated control cultures
Protocol: Experiments were also performed in a preclinical cell culture model for human ductal breast carcinoma in situ (DCIS). The human breast-derived preneoplastic cell line 184-B5/HER expressed HER-2/neu, p53 and EGFR but not ER, therefore resembling the clinical DCIS. Initial dose-response experiments compared the growth inhibitory effect of orange peel extract on the parental 184-B5 cells and the HER-2/neu oncogene-expressing 184-B5/HER cells. […] Orange peel extract at the maximum cytostatic dose of 100 ppm accumulated the cells in the G0/G1 phase and inhibited the S+G2/M phase of the cell cycle, leading to down-regulation of cell cycle progression. […] Treatment of 184-B5/HER cells with 100 ppm orange peel extract induced a 7.6-fold increase in sub G0/G1 (apoptotic) population. Consistent with the induction of apoptosis, immunoreactivity to anti-apoptotic Bcl-2 was decreased by 33%.
Resveratrol and its analogs were also tested in preneoplastic 184-B5/HER human mammary epithelial cells.

[2] = system: AOM-induced aberrant crypt foci (ACF); assay: AOM-induced formation of aberrant crypt foci (colon cancer model); type: in vivo, Female CF-1 mice; conditions: 0.2% in diet
Protocol: The orange peel extract was then tested in an in vivo model for colon cancer. Female CF-1 mice were injected with azoxymethane (AOM) once a week for four weeks at increasing doses (5, 10, 10 and 10 mg/kg). Orange peel extract was administered in the diet (0.2%) starting two weeks before the first AOM injection, during and continuing until the end of the experiment at 24 weeks. At week 24, the mice were given one last dose of AOM (10 mg/kg). The mice were then sacrificed and their colons removed (from anus to caecum). The colons were opened longitudinally, rinsed with normal saline, and stapled to a plastic sheet. The colon samples were placed in a 10% neutral buffered formalin solution for 24 hours. The entire colon was stained with 0.2% methylene blue dissolved in phosphate buffered saline for 20 minutes. The whole mount of colon samples were then examined using light microscopy for the presence of aberrant crypt (AC) or aberrant crypt foci (ACF). Both ACF and AC are biomarkers for colon cancer. […] Mice fed nordihydroxyguaiaretic acid (NDGA) in the diet (0.2%) were used as controls.

AOM-induced colon tumors = assay: AOM-induced colon tumorigenesis; conditions: 0.2% in AIN 76A diet + AOM
Protocol: In a similar experiment in the mouse colon cancer model, CF-1 mice were injected with AOM (5, 10, 10 and 10 mg/kg) starting at 6 weeks of age, once each week and then once at 37 weeks after the first dose of AOM. Throughout the treatment period, mice received either an AIN 76A diet or test compound in AIN 76A diet at 2 weeks before the first dose of AOM and continuing until the end of the experiment. The test compounds were NDGA (0.2%) and orange peel extract (0.2%). Colon samples were again obtained at sacrifice, stored in 10% formalin phosphate buffer, and then colon tumor number was determined.

[3] = system: oncogene-expressing, preneoplastic breast epithelial cells; assay: orthotransplant model, palpable tumor formation at transplant sites; conditions: AIN-76A diet supplemented with 400 ppm
Description: Mice were transplanted with oncogene-expressing, preneoplastic breast epithelial cells. Mice were then divided into groups with the control group fed AIN-76A diet alone. Another group of mice was fed AIN-76A diet supplemented with MR-3 (400 ppm).

[4] = read-out: concentration that inhibited growth by 50% (IC50), 184-B5/HER human mammary epithelial cells

Structure (SMILES): COc1ccc(-c2cc(=O)c3c(OC)c(OC)c(OC)c(OC)c3o2)cc1 [tangeretin, 5,6,7,8,4′-pentamethoxyflavone]
- effect on normal cell growth (W138 (normal) cells): no effect
- inhibition of cell growth in transformed cells [1]: only marginal effects

Structure (SMILES): Oc1ccc(C=Cc2cc(O)c(O)c(O)c2)cc1 [R-3, 3,4,4′,5-tetrahydroxystilbene]
- morphological changes of W138 cells (W138 (normal) cells): elongation
- inhibition of cell growth (W138 and W138VA cells; tested 1 μM to 100 μM): inhibited cell growth

Structure (SMILES): COc1cc(C=Cc2ccccc2)cc(OC)c1 [MR-1, 3,5-dimethoxystilbene]
- activity as inhibitor of cell growth (W138 and W138VA cells; doses as high as 100 μM): not active

Structure (SMILES): Oc1ccc(C=Cc2cc(O)cc(O)c2)cc1 [resveratrol, reference compound]
- morphological changes of W138 cells (W138 (normal) cells): elongation
- concentration inhibiting cell growth (W138 and W138VA cells; tested 1 μM to 100 μM): less than 10 μM

Structure (SMILES): COc1cc(C=Cc2ccc(OC)c(OC)c2)cc(OC)c1 [MR-2, 3,3′,4,5′-tetramethoxystilbene]
- IC50 (184-B5/HER cells; [4]): 120 µM
- cell cycle analysis (184-B5/HER cells): progressive arrest of cells in the G2/M phase

Structure (SMILES): CC(Cc1ccc(O)c(O)c1)C(C)Cc1ccc(O)c(O)c1 (stereo not shown) [NDGA, nordihydroxyguaiaretic acid]
- AC/ACF ([2]; 24 weeks): 3.5
- AC/colon ([2]; 24 weeks): 9.4 ± 2.2
- ACF/colon ([2]; 24 weeks): 2.7 ± 0.9
- ACF: 1 AC/colon ([2]; 24 weeks): 6.8 ± 1.5
- ACF: 2 AC/colon ([2]; 24 weeks): 1.0 ± 0.3
- ACF: 3 AC/colon ([2]; 24 weeks): 0.2 ± 0.2
- ACF: 4 AC/colon ([2]; 24 weeks): 0
- ACF: 5 AC/colon ([2]; 24 weeks): 0
- ACF: 6 AC/colon ([2]; 24 weeks): 0
- ACF: 7 AC/colon ([2]; 24 weeks): 0
- inhibition of the number of ACF per colon ([2]; vs positive control): 48%
- inhibition of the ratio of AC/ACF ([2]; vs positive control): 51%
- Colon Tumors Per Mouse (AOM-induced colon tumors): 0.27 ± 0.14
- Percent Incidence (AOM-induced colon tumors): 27%

Structure (SMILES): COc1ccc(C=Cc2cc(OC)c(OC)c(OC)c2)cc1 [MR-3, 3,4,4′,5-tetramethoxystilbene]
- toxicity (weight gains comparable) ([3]; 12 weeks): little toxicity
- tumor incidence ([3]; 12 weeks of continuous feeding): 20%
- morphological changes of W138 cells (W138 (normal) cells): flattening
- growth of W138 cells (W138 (normal) cells; 1 μM): no effect
- neutral β-galactosidase activity (staining), senescence marker (W138 (normal) cells): increase
- IC50 (184-B5/HER cells; Homo sapiens, 184B5, read-out: concentration that inhibited growth by 50% (IC50)): 1 µM
- cell cycle analysis (184-B5/HER cells): progressive arrest of cells in the G2/M phase
- proliferation of W138VA cells ([1]; 1 μM): completely blocked proliferation

Structure (SMILES): COc1ccc(-c2cc(=O)c3c(OC)c(OC)c(OC)c(OC)c3o2)cc1OC [nobeletin, 5,6,7,8,3′,4′-hexamethoxyflavone]
- effect on normal cell growth (W138 (normal) cells): no effect
- inhibition of cell growth in transformed cells [1]: only marginal effects

Structure (SMILES): Oc1cc(O)cc(C=Cc2ccccc2)c1 [R-1, 3,5-dihydroxystilbene]
- morphological changes of W138 cells (W138 (normal) cells): elongation

Structure (SMILES): COc1cc(C=Cc2cc(OC)cc(OC)c2)cc(OC)c1 [MR-4, 3,3′,5′5′-tetramethoxystilbene]
- growth of W138 cells (W138 (normal) cells; 100 μM): inhibited growth

Structure (SMILES): COc1ccc(C=Cc2cc(OC)cc(OC)c2)cc1 [MR-0, 3, 4′,5-trimethoxystilbene]
- morphological changes of W138 cells (W138 (normal) cells): flattening
- neutral β-galactosidase activity (staining), senescence marker (W138 (normal) cells): increase
- IC50 (184-B5/HER cells; [4]): 10.5 µM
- cell cycle analysis (184-B5/HER cells): progressive arrest of cells in the G2/M phase
- inhibition of cell growth (W138 and W138VA cells; tested 1 μM to 100 μM): inhibited cell growth
